The text below walks through data of patent US20120029068A1, “TRANSDERMAL FLUID” (MALAYSIAN PALM OIL BROARD A/K/A MPOB, priority 2007, published 2012).

Where two headings read alike, the source gives them in different places.

The test system of one data set is ZR-75-1 cells. Particulars: absence and presence of estradiol and tamoxifen; cited from earlier work.
A further data set relates to prostate cancer cell. Particulars: comparison between homologues; cited from earlier work.
Data set [1] concerns human breast cancer cells. The note with it: cited from earlier work; for anti-proliferative and pro-apoptotic effects / inhibition of breast cancer cell growth: human breast cancer cells.
In another data set the test system is MCF-7. The note with it: absence and presence of estradiol and tamoxifen; cited from earlier work.
For data set [2] the following is noted: mouse, in vivo.
Description: BALB/c mice were divided into 2 groups. Control group only received ethanol the carrier whilst the experimental group was treated with 1 mg of δ-tocotrienols daily for 4 weeks. It was applied on the back to examine subcutaneous absorption.
Female BALB/c mice 3 to 4 weeks old were obtained from the Animal Breeding Unit, Institute for Medical Research (IMR), Kuala Lumpur, Malaysia. […] The control animals were treated with ethanol alone whilst the experimental groups were applied daily with 0.5 ml of a 20 mg/ml concentration to deliver 1 mg of δ-tocotrienol.
The tocopherols and tocotrienols were analysed by HPLC. The system used was a Shimadzu LC-10AT HPLC coupled with a Shimadzu Model RF-10AXL fluorescence spectrophotometer, Shimadzu Class VP data acquisition software, and silica column (YMC A-012/150×6 mm I.D, 5 μm). The eluting solvent was hexane/isopropyl alcohol (99.5/0.5 v/v) at a flow rate of 2.0 ml/min. The detector was set at excitation wavelength of 295 nm and emission wavelength of 325 nm. 500 mg adipose tissue was homogenized with 4:1:1 mixture of hexane:ethanol and 0.9% sodium chloride at 10000 rpm for 5 minutes. The homogenate was then centrifuged at 2000 rpm for 5 minutes. The resulting supernatant was filtered and evaporated using a rotary evaporator. A known amount of lipid sample was dissolved in a 10 ml volumetric flask using the eluting solvent and 10 μl of the solution was injected into the HPLC system. A standard solution of a mixture of α, γ, and δ-tocotrienols was also injected accordingly. Quantification of the major components of vitamin E was carried out by comparing the peak areas of the components with those of the standards.
The test system of another data set is IFN-γ. Nature of the data set: IFN-γ ELISA on splenocytes of mice immunized with OVA. It is filed as in vivo, BALB/c mice. The note with it: transdermal δ-T3 vs control. As to the method: (§1) The mice were further immunized subcutaneously with ovalbumin (50 μg) adjuvanted in alum. Interferon-gamma (IFN-γ) was measured upon antigen specific stimulation of OVA.
The experimental mice were sacrificed using ether. Spleen was removed aseptically into RPMI complete medium and single cell suspension was made by teasing out the splenocytes from the spleen capsule. Before culture, cells were stained with 0.4% Trypan Blue Stain (GIBCO, Invitrogen Corp, New Zealand) and cell viability count was performed using a haemocytometer. The spleen cell suspension was diluted to give a 5×10^6 cells/ml solution and Concanavalin A (Sigma-Aldrich Inc, St Louis Mo., USA) was added at a final concentration of 25 μg/ml. 200 μl of this suspension was plated on to 96-well flat-bottomed tissue culture plates (Becton Dickinson, USA) and left in a humidified CO2 incubator at 37° C. for 72 hours. At the end of each incubation period, the plate was removed from the incubator and stored at −70° C. The plates were thawed prior to performing ELISA.
The tissue culture plates that were frozen at […] were thawed. […] The supernatant was analysed by ELISA to quantify the amount of IFN-γ and IL-4 produced following the in vitro stimulation with Concanavalin A. ELISA was performed using ELISA kits for mouse IFN-γ and IL-4 (BD, Pharmingen) as recommended by the manufacturers.
On the technique in general: In an ELISA, binding on a coated surface is turned into a signal by an enzyme label.

The next data set relates to B-lymphocytes. Nature of the data set: Single colour flow cytometry with leukocyte marker antibodies, B-lymphocytes. It counts as in vivo, BALB/c mice. Particulars: whole blood, δ-tocotrienol group compared to control. As for the experimental part:
as §1
(§2) Fluorescein isothiocyanate (FITC) or Phycoerythrin-labeled antibodies were diluted by adding 20 μl of antibody to 50 μl of Staining Buffer in separate tubes. 100 μl of whole blood from mouse was added to each tube and mixed gently. The samples were then incubated for one hour at room temperature in the dark. After incubation, 2 ml of RBC Lysis Buffer was added into each tube and mixed gently. Samples were then centrifuged at 400 g for 5 minutes at room temperature. A wash step was carried out by adding 2 ml of Staining Buffer and samples were again centrifuged at 400 g for 5 minutes at room temperature. Supernatant was removed and 200 μl Staining Buffer was added into each tube followed by 204 μl of 4% Formalin. Samples were analysed using Flow Cytometer.
A general note: Flow cytometry measures light scatter and fluorescence of single cells or particles in a stream.

The subject of a further data set is Splenocytes. As to the kind of experiment: MTT viability assay of splenocytes. Particulars: splenocytes of treated mice, addition of concanavalin A or OVA. It is filed as cell-based, BALB/c mice. As to the method: Viability of the cells was measured by the MTT assay. In this assay MTT is converted to a blue formazan product by dehydrogenases that are active in living cells. Splenocytes were seeded with concanavalin A or OVA in a 96 well plate in a total volume of 200 μl of medium. MTT (25 μl of 5 mg/ml) was added to each well. After 4 hours, 100 μl of extraction buffer consisting of 20% SDS dissolved in a 50% dimethyl formamide/50% water solution at pH 4.0 was added. The blue colour formed was measured at 590 nm.
The MTT assay uses the principle whereby cell growth or cell death is indicated by the conversion or lack of conversion of the tetrazolium salt to the coloured product, formazan, the concentration of which can be measured spectrophotometrically.

In data set [3] the test system is natural killer cells (NK). Nature of the data set: Single colour flow cytometry with leukocyte marker antibodies, NK cells. It is filed as in vivo, BALB/c mice. Particulars: whole blood, δ-tocotrienol group compared to control. As to the method:
as §1, §2

In the next data set the test system is MDA-MB-231 cells. The note with it: cited from earlier work.
The test system of a further data set is MCF-7 cells. Particulars: α-T combined with tamoxifen; cited from earlier work.
For data set [4] the following is noted: rats fed 50 mg of α-T3 or α-T, α-T3 vs α-T; cited from earlier work.

Regarding `CC(C)=CCC/C(C)=C/CC/C(C)=C/CC[C@]1(C)CCc2cc(O)c(C)c(C)c2O1` [γ-T3, γ-tocotrienol], the “proliferation of ZR-75-1 cells” value with ZR-75-1 cells was “inhibited proliferation”. For the same compound, in the data set on prostate cancer cell, the “effect on prostate cancer cell growth” value was “greater anti-proliferative effects than γ-T”. Besides, the “anti-proliferative and pro-apoptotic effects / inhibition of breast cancer cell growth” value in data set [1] is “potent anti-proliferative and pro-apoptotic effects”. The “proliferation of MCF-7” value in the data set on MCF-7 is reported as “inhibited proliferation”.
As for `Cc1c(O)cc2c(c1C)O[C@](C)(CCC[C@H](C)CCC[C@H](C)CCCC(C)C)CC2` [γ-T, γ-tocopherol, reference compound], the “effect on prostate cancer cell growth” value with prostate cancer cell is on record as “much stronger inhibitory effect”.
On to `CC(C)=CCC/C(C)=C/CC/C(C)=C/CC[C@]1(C)CCc2cc(O)cc(C)c2O1` [δ-T3, δ-tocotrienol], for which the “proliferation of ZR-75-1 cells” value in the data set with ZR-75-1 cells is reported as “inhibited proliferation”. Further, the “changes in tocotrienol levels in blood, spleen and liver” value in [2] is “only seen at week 4”. In addition, the “concentration in adipose and subcutaneous fat tissue at week 3” value in data set [2] is reported as “drop in concentration”. Further, in [2], the “time of optimum concentration in breast and abdominal adipose and subcutaneous fat tissue” value turned out to be 2 week. In addition, in data set [2], the “δ-T3 in breast and abdominal adipose and subcutaneous fat tissue” value was “significant increases”. Further, the IFN-γ in splenocytes entry is recorded as “significantly higher” in the data set with IFN-γ and “significant increase” in the data set on IFN-γ (listed as δ-tocotrienols). Moreover, the B-lymphocytes entry is “significantly increased” in the data set on B-lymphocytes and “increase” in the data set on B-lymphocytes (listed as δ-tocotrienols). Also, the “synergistic efficacy with Tamoxifen” value in data set [1] (breast cancer) was “highest synergistic efficacy”. Besides, the “anti-proliferative and pro-apoptotic effects / inhibition of breast cancer cell growth” value is “potent anti-proliferative and pro-apoptotic effects” in data set [1]; “most effective inhibitor” in data set [1] (listed as δ-tocotrienol). In the data set with Splenocytes, the “splenocyte growth (MTT OD reading)” value was “grew normally”. Moreover, the “proliferation of MCF-7” value with MCF-7 was “inhibited proliferation”. Besides, the natural killer cells result in [3] is on record as “significantly increased”; in data set [3] (listed as δ-tocotrienols), “increase”.
As to `Cc1c(C)c2c(c(C)c1O)CC[C@@](C)(CCC[C@H](C)CCC[C@H](C)CCCC(C)C)O2` [α-T, α-tocopherol], in the data set with MDA-MB-231 cells, the “effect on growth inhibitory effects of tamoxifen” value is on record as “completely blocked”. The “anti-proliferative and pro-apoptotic effects / inhibition of breast cancer cell growth” value in [1] is “no effect”. Besides, the “increase of the IC50 for tamoxifen” value with MCF-7 cells was “more than 1000 fold”.
For the compound `CC(C)=CCC/C(C)=C/CC/C(C)=C/CC[C@]1(C)CCc2c(C)c(O)c(C)c(C)c2O1` [α-T3, α-tocotrienol], the “concentration in adipose tissue and skin” value in data set [4] is listed as “significantly higher”. In the data set on ZR-75-1 cells, the “proliferation of ZR-75-1 cells” value is listed as “inhibited proliferation”. Further, the “anti-proliferative and pro-apoptotic effects / inhibition of breast cancer cell growth” value in data set [1] was “potent anti-proliferative and pro-apoptotic effects”. Further, the “proliferation of MCF-7” value in the data set on MCF-7 is reported as “inhibited proliferation”.
